Source: patent publication US20130059783A1, “COMPOSITIONS AND METHODS FOR EXPANDING BFU-E CELLS” (priority 2010, published 2013)

Test system: mRNA expression in BFU-E cells
Assay: mRNA-Seq of BFU-E cells cultured 4 hours with or without Dex (Table S3)
Type: cell-based, mouse
Details: for Expression level log2((100 nM DEX)* (0 nM DEX)) / Expression of mRNA in BFU-E after 4 h 100 nM DEX (RPKM) / Expression change log2 ((100 nM DEX)/(0 nM DEX)) / Expression change log2 ((100 nM DEX)/(0 nM DEX))2: BFU-E, 4 h; for Expression change log2 ((100 nM DEX)/(0 nM DEX)): 100 nM vs 0 nM DEX
Source text: FIGS. 2A-2B. The effect of glucocorticoids on miRNA and mRNA expression in BFU-E cells determined by next generation sequencing. […] Both mRNAs and miRNAs were subjected to Illumina deep sequencing. […] (B) A plot similar to that in A for expression of individual mRNAs. mRNA expression was normalized using the RPKM method, which determines the relative expression of each gene to all expressed genes by giving each gene an RPKM count (number of uniquely aligning reads per kb exon per million total reads). […]
To minimize the risk of false positive GC target genes we chose to compare only highly expressed genes (≈10,000 genes with a multiplied RPKM count >4) (Mortazavi et al., 2008).
Samples for Paired-End mRNA-Seq were prepared using the Solexa kit according to the manufacturer's instructions with the exception that we extracted 300 bp bands, before and after the PCR step (Illumina). Images acquired from the Solexa sequencer were processed through the bundled Solexa image extraction pipeline version 1.4. mRNA-Seq reads were aligned to mouse NCBI build 37 (mm9) using ELAND, Briefly, the first 32 bases of a read were used as a seed. Each matched seed was then extended up to 36 bases and scored to break any ties between multi-matches. For mRNA expression counts, unique reads in the genome that landed within any exons of NCBI gene models (v37.1) were counted. The counts were normalized by the mRNA length to get the final RPKM values (i.e. reads per KB per million reads).

[1] = BFU-E cells, 4 hours, 100 nM Dex
[2] = gene 38413 (membrane-associated ring finger (C3HC4) 3)

SMILES: C[C@@H]1C[C@H]2[C@@H]3CCC4=CC(=O)C=C[C@]4(C)[C@@]3(F)[C@@H](O)C[C@]2(C)[C@@]1(O)C(=O)CO [Dex, dexamethasone]
- Upregulation of Ddit4 (BFU-E cells, 4 hours): > 8 fold
- Genes differentially expressed (more than a factor of 2) [1]: 195 genes
- Genes down regulated (more than a factor of 2) [1]: 112 genes
- Genes up regulated (more than a factor of 2) [1]: 83 genes
- Expression level log2((100 nM DEX)* (0 nM DEX)) [2]: 4.94
- Expression of mRNA in BFU-E after 4 h 100 nM DEX (RPKM) [2]: 8.25 RPKM
- Expression of mRNA in BFU-E after 4 h 100 nM DEX (RPKM) (gene 0610040J01Rik): 14.77 RPKM
- Expression change log2 ((100 nM DEX)/(0 nM DEX)) (gene 0610040J01Rik): 2.84
- Expression of mRNA in BFU-E after 4 h 100 nM DEX (RPKM) (gene Acp5): 20.40 RPKM
- Expression change log2 ((100 nM DEX)/(0 nM DEX)) (gene Acp5): 2.70
- Expression of mRNA in BFU-E after 4 h 100 nM DEX (RPKM) (gene Ampd3): 15.71 RPKM
- Expression of mRNA in BFU-E after 4 h 100 nM DEX (RPKM) (gene Ank): 48.60 RPKM
- Expression change log2 ((100 nM DEX)/(0 nM DEX)) (gene Ank): 2.06
- Expression change log2 ((100 nM DEX)/(0 nM DEX))2 (gene Aqp3): 1.34
- Expression of mRNA in BFU-E after 4 h 100 nM DEX (RPKM) (gene Aqp3): 6.98 RPKM
- Expression of mRNA in BFU-E after 4 h 100 nM DEX (RPKM) (gene Arhgef3): 16.21 RPKM
- Expression change log2 ((100 nM DEX)/(0 nM DEX)) (gene Arhgef3): 2.88
- Expression level log2((100 nM DEX)* (0 nM DEX)) (gene Atp2b4): 9.79
- Expression of mRNA in BFU-E after 4 h 100 nM DEX (RPKM) (gene Atp2b4): 43.89 RPKM
- Expression of mRNA in BFU-E after 4 h 100 nM DEX (RPKM) (gene Bcl2): 6.45 RPKM
- Expression change log2 ((100 nM DEX)/(0 nM DEX)) (gene Bcl2): 1.69
- Expression of mRNA in BFU-E after 4 h 100 nM DEX (RPKM) (gene Cables1): 4.90 RPKM
- Expression change log2 ((100 nM DEX)/(0 nM DEX))2 (gene Ccnd1): 1.34
- Expression level log2((100 nM DEX)* (0 nM DEX)) (gene Ccnd1): 3.76
- Expression of mRNA in BFU-E after 4 h 100 nM DEX (RPKM) (gene Ccnd1): 5.86 RPKM
- Expression level log2((100 nM DEX)* (0 nM DEX)) (gene Cd59a): 2.18
- Expression of mRNA in BFU-E after 4 h 100 nM DEX (RPKM) (gene Cd59a): 3.15 RPKM
- Expression of mRNA in BFU-E after 4 h 100 nM DEX (RPKM) (gene Clca1): 7.54 RPKM
- Expression change log2 ((100 nM DEX)/(0 nM DEX)) (gene Clca1): 2.07
- Expression level log2((100 nM DEX)* (0 nM DEX)) (gene Clcn2): 5.04
- Expression of mRNA in BFU-E after 4 h 100 nM DEX (RPKM) (gene Clcn2): 8.78 RPKM
- Expression level log2((100 nM DEX)* (0 nM DEX)) (gene Clint1): 15.15
- Expression of mRNA in BFU-E after 4 h 100 nM DEX (RPKM) (gene Clint1): 285.78 RPKM
- Expression of mRNA in BFU-E after 4 h 100 nM DEX (RPKM) (gene Clstn1): 70.51 RPKM
- Expression change log2 ((100 nM DEX)/(0 nM DEX)) (gene Clstn1): 1.72
- Expression level log2((100 nM DEX)* (0 nM DEX)) (gene Cyth3): 11.35
- Expression of mRNA in BFU-E after 4 h 100 nM DEX (RPKM) (gene Cyth3): 75.31 RPKM
- Expression of mRNA in BFU-E after 4 h 100 nM DEX (RPKM) (gene Ddit4): 20.23 RPKM
- Expression change log2 ((100 nM DEX)/(0 nM DEX)) (gene Ddit4): 3.08
- Expression level log2((100 nM DEX)* (0 nM DEX)) (gene E430018J23Rik): 2.10
- Expression of mRNA in BFU-E after 4 h 100 nM DEX (RPKM) (gene E430018J23Rik): 3.02 RPKM
- Expression of mRNA in BFU-E after 4 h 100 nM DEX (RPKM) (gene Egln3): 16.47 RPKM
- Expression change log2 ((100 nM DEX)/(0 nM DEX)) (gene Egln3): 3.00
- Expression of mRNA in BFU-E after 4 h 100 nM DEX (RPKM) (gene Egr1): 18.06 RPKM
- Expression of mRNA in BFU-E after 4 h 100 nM DEX (RPKM) (gene Fam46a): 6.44 RPKM
- Expression change log2 ((100 nM DEX)/(0 nM DEX)) (gene Fam46a): 1.68
- Expression of mRNA in BFU-E after 4 h 100 nM DEX (RPKM) (gene Fam46c): 13.90 RPKM
- Expression level log2((100 nM DEX)* (0 nM DEX)) (gene Fam55c): 5.91
- Expression of mRNA in BFU-E after 4 h 100 nM DEX (RPKM) (gene Fam55c): 11.20 RPKM
- Expression of mRNA in BFU-E after 4 h 100 nM DEX (RPKM) (gene Fam83g): 8.67 RPKM
- Expression level log2((100 nM DEX)* (0 nM DEX)) (gene Fes): 2.34
- Expression of mRNA in BFU-E after 4 h 100 nM DEX (RPKM) (gene Fes): 3.48 RPKM
- Expression of mRNA in BFU-E after 4 h 100 nM DEX (RPKM) (gene Fkbp5): 74.76 RPKM
- Expression change log2 ((100 nM DEX)/(0 nM DEX)) (gene Fkbp5): 1.71
- Expression level log2((100 nM DEX)* (0 nM DEX)) (gene Fkbp11): 9.88
- Expression of mRNA in BFU-E after 4 h 100 nM DEX (RPKM) (gene Fkbp11): 44.44 RPKM
- Expression of mRNA in BFU-E after 4 h 100 nM DEX (RPKM) (gene Frmd4a): 28.77 RPKM
- Expression change log2 ((100 nM DEX)/(0 nM DEX)) (gene Frmd4a): 2.03
- Expression level log2((100 nM DEX)* (0 nM DEX)) (gene Glul): 12.54
- Expression of mRNA in BFU-E after 4 h 100 nM DEX (RPKM) (gene Glul): 110.54 RPKM
- Expression change log2 ((100 nM DEX)/(0 nM DEX))2 (gene Gm129): 1.01
- Expression level log2((100 nM DEX)* (0 nM DEX)) (gene Gm129): 2.29
- Expression of mRNA in BFU-E after 4 h 100 nM DEX (RPKM) (gene Gm129): 3.14 RPKM
- Expression of mRNA in BFU-E after 4 h 100 nM DEX (RPKM) (gene Gna14): 3.37 RPKM
- Expression level log2((100 nM DEX)* (0 nM DEX)) (gene Gng13): 3.81
- Expression of mRNA in BFU-E after 4 h 100 nM DEX (RPKM) (gene Gng13): 5.76 RPKM
- Expression of mRNA in BFU-E after 4 h 100 nM DEX (RPKM) (gene Gsta4): 9.00 RPKM
- Expression change log2 ((100 nM DEX)/(0 nM DEX)) (gene Gsta4): 2.60
- Expression of mRNA in BFU-E after 4 h 100 nM DEX (RPKM) (gene Hif3a): 101.46 RPKM
- Expression change log2 ((100 nM DEX)/(0 nM DEX)) (gene Hif3a): 1.38
- Expression of mRNA in BFU-E after 4 h 100 nM DEX (RPKM) (gene Hopx): 13.32 RPKM
- Expression change log2 ((100 nM DEX)/(0 nM DEX)) (gene Hopx): 1.82
- Expression of mRNA in BFU-E after 4 h 100 nM DEX (RPKM) (gene Hp): 4.41 RPKM
- Expression change log2 ((100 nM DEX)/(0 nM DEX))2 (gene Ier2): 1.05
- Expression level log2((100 nM DEX)* (0 nM DEX)) (gene Ier2): 10.07
- Expression of mRNA in BFU-E after 4 h 100 nM DEX (RPKM) (gene Ier2): 47.27 RPKM
- Expression level log2((100 nM DEX)* (0 nM DEX)) (gene Ier3): 3.80
- Expression of mRNA in BFU-E after 4 h 100 nM DEX (RPKM) (gene Itgb3): 7.39 RPKM
- Expression change log2 ((100 nM DEX)/(0 nM DEX)) (gene Itgb3): 2.37
